The results in this text go back to paper doi:10.1101/2021.02.22.432362v1 (biorxiv, 2021).

By pIC50 is commonly meant the IC50 on a negative log10 scale, so that one unit is a factor of ten.

In one experiment the target is BRD8(1) (Homo sapiens, UniProt Q9H0E9). As to the kind of experiment: AlphaScreen biotin-tracer competition. It counts as binding. (In general: In Alpha technology, singlet oxygen from a donor bead excites a nearby acceptor bead.)
For a further experiment, the target named is ATAD2A (Homo sapiens, UniProt Q6PL18). As to the kind of experiment: biochemical. Conditions: read-out: % Ctrl (1 uM).
The target of another experiment is ATAD2B (Homo sapiens, UniProt Q9ULI0). Put plainly: biochemical. The following applies: read-out: % Ctrl (1 uM).
A further experiment concerns the target BAZ2A (Homo sapiens, UniProt Q9UIF9). As to the kind of experiment: biochemical. Conditions: read-out: % Ctrl (1 uM).
A further experiment concerns the target BAZ2B (Homo sapiens, UniProt Q9UIF8). As to the kind of experiment: biochemical. The following applies: read-out: % Ctrl (1 uM).
For another experiment, the target named is BRD1 (Homo sapiens, UniProt O95696). As to the kind of experiment: biochemical. Conditions: read-out: % Ctrl (1 uM).
A further experiment concerns the target BRD2(1) (Homo sapiens, UniProt P25440). As to the kind of experiment: biochemical. The following applies: read-out: % Ctrl (1 uM).
The target of the next experiment is BRD2(2) (Homo sapiens, UniProt P25440). As to the kind of experiment: biochemical. The following applies: read-out: % Ctrl (1 uM).
The target of a further experiment is BRD3(1) (Homo sapiens, UniProt Q15059). As to the kind of experiment: biochemical. Conditions: read-out: % Ctrl (1 uM).
Another experiment concerns the target BRD3(2) (Homo sapiens, UniProt Q15059). Put plainly: biochemical. Conditions: read-out: % Ctrl (1 uM).
A further experiment deals with BRD4(1) (Homo sapiens, UniProt O60885). Put plainly: biochemical. Conditions: read-out: % Ctrl (1 uM).
The next experiment concerns the target BRD4(2) (Homo sapiens, UniProt O60885). Put plainly: biochemical. The following applies: read-out: % Ctrl (1 uM).
The target in another experiment is BRD7 (Homo sapiens, UniProt Q9NPI1). As to the kind of experiment: biochemical. The following applies: read-out: % Ctrl (1 uM).
Experiment [1] deals with BRD9 (Homo sapiens, UniProt Q9H8M2). As to the kind of experiment: biochemical. Conditions: read-out: % Ctrl (1 uM).
Target sequence in this assay (Q9H8M2 whole entry): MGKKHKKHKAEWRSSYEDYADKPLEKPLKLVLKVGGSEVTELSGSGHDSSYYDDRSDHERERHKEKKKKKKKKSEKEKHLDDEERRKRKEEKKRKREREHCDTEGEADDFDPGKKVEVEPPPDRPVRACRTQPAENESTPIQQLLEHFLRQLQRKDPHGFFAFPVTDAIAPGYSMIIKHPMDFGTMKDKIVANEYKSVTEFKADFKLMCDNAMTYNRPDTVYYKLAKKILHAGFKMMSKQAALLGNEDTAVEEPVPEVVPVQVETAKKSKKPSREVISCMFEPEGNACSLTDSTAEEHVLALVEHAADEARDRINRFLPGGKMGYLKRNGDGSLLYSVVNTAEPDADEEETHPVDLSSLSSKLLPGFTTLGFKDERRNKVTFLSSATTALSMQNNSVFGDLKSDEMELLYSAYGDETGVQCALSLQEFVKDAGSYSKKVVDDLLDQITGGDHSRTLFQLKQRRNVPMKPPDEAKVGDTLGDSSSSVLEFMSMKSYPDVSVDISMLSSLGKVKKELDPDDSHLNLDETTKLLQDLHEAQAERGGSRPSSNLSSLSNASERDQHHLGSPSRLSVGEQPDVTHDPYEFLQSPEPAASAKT
The next experiment deals with BRDT(1) (Homo sapiens, UniProt Q58F21). Put plainly: biochemical. The following applies: read-out: % Ctrl (1 uM).
A further experiment has as its target BRDT(2) (Homo sapiens, UniProt Q58F21). As to the kind of experiment: biochemical. Conditions: read-out: % Ctrl (1 uM).
A further experiment addresses BRPF1 (Homo sapiens, UniProt P55201). As to the kind of experiment: biochemical. The following applies: read-out: % Ctrl (1 uM).
Another experiment addresses BRPF3 (Homo sapiens, UniProt Q9ULD4). As to the kind of experiment: biochemical. The following applies: read-out: % Ctrl (1 uM).
A further experiment addresses CECR2 (Homo sapiens, UniProt Q9BXF3). As to the kind of experiment: biochemical. Conditions: read-out: % Ctrl (1 uM).
Another experiment has as its target CREBBP (Homo sapiens, UniProt Q92793). As to the kind of experiment: biochemical. The following applies: read-out: % Ctrl (1 uM).
A further experiment concerns the target EP300 (Homo sapiens, UniProt Q09472). As to the kind of experiment: biochemical. Conditions: read-out: % Ctrl (1 uM).
The next experiment addresses FALZ (Homo sapiens, UniProt Q12830). Put plainly: biochemical. Conditions: read-out: % Ctrl (1 uM).
A further experiment addresses GCN5L2 (Homo sapiens, UniProt Q92830). As to the kind of experiment: biochemical. The following applies: read-out: % Ctrl (1 uM).
Another experiment concerns the target PBRM1(2) (Homo sapiens, UniProt Q86U86). Put plainly: biochemical. Conditions: read-out: % Ctrl (1 uM).
The target in another experiment is PBRM1(5) (Homo sapiens, UniProt Q86U86). As to the kind of experiment: biochemical. Conditions: read-out: % Ctrl (1 uM).
In the next experiment the target is PCAF (Homo sapiens, UniProt Q92831). Put plainly: biochemical. Conditions: read-out: % Ctrl (1 uM).
A further experiment addresses SMARCA2 (Homo sapiens, UniProt P51531). As to the kind of experiment: biochemical. Conditions: read-out: % Ctrl (1 uM).
Another experiment addresses SMARCA4 (Homo sapiens, UniProt P51532). Put plainly: biochemical. Conditions: read-out: % Ctrl (1 uM).
The target of another experiment is TAF1(2) (Homo sapiens, UniProt P21675). Put plainly: biochemical. Conditions: read-out: % Ctrl (1 uM).
A further experiment concerns the target TAF1L(2) (Homo sapiens, UniProt Q8IZX4). Put plainly: biochemical. Conditions: read-out: % Ctrl (1 uM).
In another experiment the target is TRIM24(PHD,Bromo.) (Homo sapiens, UniProt O15164). As to the kind of experiment: biochemical. Conditions: read-out: % Ctrl (1 uM).
The target in another experiment is Trim33(PHD,Bromo.) (Homo sapiens, UniProt Q9UPN9). Put plainly: biochemical. The following applies: read-out: % Ctrl (1 uM).
The next experiment concerns the target WDR9(2) (Homo sapiens, UniProt Q9NSI6). As to the kind of experiment: biochemical. The following applies: read-out: % Ctrl (1 uM).
Experiment [2] addresses BRD9 (Homo sapiens, UniProt Q9H8M2). Put plainly: AlphaScreen tracer competition. It counts as binding.
Target sequence in this assay (Q9H8M2 134-239 limits assumed): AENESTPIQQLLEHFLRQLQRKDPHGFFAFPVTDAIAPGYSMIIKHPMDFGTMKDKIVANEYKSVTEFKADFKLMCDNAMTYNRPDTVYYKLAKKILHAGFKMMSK

pIC50: −log10 of the molar value. Where two headings read alike, the source gives them in different places.

Chain of BRD8(1) (Q9H0E9 706-811 limits assumed): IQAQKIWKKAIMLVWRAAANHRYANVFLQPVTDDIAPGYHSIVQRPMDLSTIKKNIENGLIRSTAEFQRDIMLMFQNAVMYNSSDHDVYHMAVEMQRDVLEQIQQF
Chain of PCAF (Q92831 whole entry): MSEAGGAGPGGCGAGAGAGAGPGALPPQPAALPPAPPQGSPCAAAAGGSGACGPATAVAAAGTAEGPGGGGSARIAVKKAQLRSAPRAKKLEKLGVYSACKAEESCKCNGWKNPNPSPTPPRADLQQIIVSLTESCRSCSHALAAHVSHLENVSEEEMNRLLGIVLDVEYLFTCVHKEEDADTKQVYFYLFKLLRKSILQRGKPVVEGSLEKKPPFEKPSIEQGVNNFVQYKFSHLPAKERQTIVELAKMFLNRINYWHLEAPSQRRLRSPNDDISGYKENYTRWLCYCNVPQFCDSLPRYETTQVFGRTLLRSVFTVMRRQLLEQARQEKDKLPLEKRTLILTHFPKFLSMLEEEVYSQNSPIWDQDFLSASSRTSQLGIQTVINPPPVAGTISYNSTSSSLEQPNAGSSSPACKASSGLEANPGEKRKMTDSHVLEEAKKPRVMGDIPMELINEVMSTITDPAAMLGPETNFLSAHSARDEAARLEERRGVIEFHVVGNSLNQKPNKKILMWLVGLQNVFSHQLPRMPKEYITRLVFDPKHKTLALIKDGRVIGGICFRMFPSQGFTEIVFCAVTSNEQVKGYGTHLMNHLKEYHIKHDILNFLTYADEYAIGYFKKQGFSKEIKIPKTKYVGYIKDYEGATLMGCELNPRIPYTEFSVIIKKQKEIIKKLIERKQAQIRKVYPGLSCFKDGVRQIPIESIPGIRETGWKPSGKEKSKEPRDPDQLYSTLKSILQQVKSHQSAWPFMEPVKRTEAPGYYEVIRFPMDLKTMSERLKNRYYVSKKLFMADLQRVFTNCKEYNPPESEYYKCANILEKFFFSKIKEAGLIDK
Chain of PBRM1(2) (Q86U86 whole entry): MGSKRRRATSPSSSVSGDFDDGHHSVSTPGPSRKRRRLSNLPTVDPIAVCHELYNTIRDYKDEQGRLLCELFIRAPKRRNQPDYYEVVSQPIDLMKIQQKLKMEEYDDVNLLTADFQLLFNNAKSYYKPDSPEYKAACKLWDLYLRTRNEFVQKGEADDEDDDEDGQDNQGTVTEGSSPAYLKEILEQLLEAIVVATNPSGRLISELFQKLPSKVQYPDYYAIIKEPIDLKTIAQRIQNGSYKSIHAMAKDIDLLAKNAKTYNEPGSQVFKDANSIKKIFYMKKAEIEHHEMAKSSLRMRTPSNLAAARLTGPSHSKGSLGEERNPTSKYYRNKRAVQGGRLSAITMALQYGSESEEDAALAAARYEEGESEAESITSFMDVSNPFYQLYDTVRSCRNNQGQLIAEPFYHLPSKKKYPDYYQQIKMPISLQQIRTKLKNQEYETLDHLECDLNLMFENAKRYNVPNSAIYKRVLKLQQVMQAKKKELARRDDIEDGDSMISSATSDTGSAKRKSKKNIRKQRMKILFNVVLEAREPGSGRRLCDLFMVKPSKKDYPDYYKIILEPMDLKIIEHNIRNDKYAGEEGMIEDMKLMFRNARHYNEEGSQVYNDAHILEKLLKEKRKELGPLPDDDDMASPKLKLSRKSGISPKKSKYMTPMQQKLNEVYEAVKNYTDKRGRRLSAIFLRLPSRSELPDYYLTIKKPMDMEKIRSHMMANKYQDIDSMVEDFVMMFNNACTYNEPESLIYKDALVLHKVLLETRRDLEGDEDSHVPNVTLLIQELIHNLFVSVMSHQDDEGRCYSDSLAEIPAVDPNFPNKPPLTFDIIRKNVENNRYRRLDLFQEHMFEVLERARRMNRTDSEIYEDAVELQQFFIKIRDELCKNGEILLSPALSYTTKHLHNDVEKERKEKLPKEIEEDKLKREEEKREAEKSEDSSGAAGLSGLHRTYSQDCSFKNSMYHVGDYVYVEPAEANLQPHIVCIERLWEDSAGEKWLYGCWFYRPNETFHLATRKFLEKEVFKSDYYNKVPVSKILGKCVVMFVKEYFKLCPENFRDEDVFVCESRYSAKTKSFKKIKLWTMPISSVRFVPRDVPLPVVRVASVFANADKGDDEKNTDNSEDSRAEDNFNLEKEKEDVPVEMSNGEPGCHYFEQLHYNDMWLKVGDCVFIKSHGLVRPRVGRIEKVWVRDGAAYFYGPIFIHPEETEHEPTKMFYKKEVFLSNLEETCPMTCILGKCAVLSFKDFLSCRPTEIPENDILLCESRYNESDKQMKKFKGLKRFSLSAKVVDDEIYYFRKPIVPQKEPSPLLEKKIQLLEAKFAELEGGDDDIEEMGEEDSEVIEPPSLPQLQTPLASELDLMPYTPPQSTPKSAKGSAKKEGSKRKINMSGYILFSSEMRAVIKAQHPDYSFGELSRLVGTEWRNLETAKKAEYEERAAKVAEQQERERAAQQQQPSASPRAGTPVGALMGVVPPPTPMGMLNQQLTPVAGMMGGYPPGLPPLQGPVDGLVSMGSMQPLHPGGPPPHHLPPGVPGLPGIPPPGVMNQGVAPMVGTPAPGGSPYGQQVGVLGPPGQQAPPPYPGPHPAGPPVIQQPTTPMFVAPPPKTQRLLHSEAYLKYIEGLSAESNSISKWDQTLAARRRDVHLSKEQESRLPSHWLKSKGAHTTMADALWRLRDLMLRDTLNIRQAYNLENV
Chain of PBRM1(5) (Q86U86 whole entry): as above

On BRD8(1) (tracer: compound 1-biotin), `COc1cc(-c2cn(C)c(=O)c3cnccc23)c(OC)cc1CN(C)C` [BI-9564] showed a negative logarithm of the IC50 (pIC50) of 6.01.

On to `COc1cc(CN2CC(N)C2)cc(OC)c1-c1cn(C)c(=O)c2cc(F)ccc12` [DN02], for which the remaining activity at 1 µM on ATAD2A is 100%; at ATAD2B, 79%; on BAZ2A, 69%; on BAZ2B, 84%; at BRD1 it was 89%; at BRD2(1), 72%. Also, the remaining activity at 1 µM at BRD2(2) came to 89%; at BRD3(1) it was 76%; on BRD3(2), 75%; on BRD4(1) it was 88%; on BRD4(2), 94%; on BRD7, 91%. Besides, the remaining activity at 1 µM is 80% on BRD9 [1]; 88% on BRDT(1); 88% on BRDT(2); 65% on BRPF1; 94% at BRPF3; 74% on CECR2. The remaining activity at 1 µM on CREBBP was found to be 9.2%; at EP300, 8.4%; at FALZ, 82%; at GCN5L2, 86%; on PBRM1(2), 85%; on PBRM1(5), 87%. The remaining activity at 1 µM is 69% on PCAF; 74% on SMARCA2; 71% on SMARCA4; 79% on TAF1(2); 91% on TAF1L(2); 90% at TRIM24(PHD,Bromo.). The remaining activity at 1 µM at Trim33(PHD,Bromo.) stood at 92%; on WDR9(2), 88%.

Take `COc1cc(CN(C)C)cc(OC)c1-c1cn(C)c(=O)c2cnccc12` [compound 3]: the negative-log IC50 (pIC50) on BRD9 [2] is less than 5.00; on BRD8(1) it was 7.07.

For the compound `COc1cc(-c2cn(C)c(=O)c3cnccc23)cc(OC)c1CN(C)C` [BI-7273], at BRD8(1) (tracer: compound 1-biotin), the IC50 result is “less potently by I-BRD9 and BI-7273”.

At BRD9 [2], `COc1ccc2ccccc2c1-c1cn(C)c(=O)c2cnccc12` [compound 2] had a pIC50 of less than 5.00.
